The record followed here is paper PMC9884089 (Journal of Medicinal Chemistry, 2023).

In data set [1] the target is T1, PARP15 (Homo sapiens, UniProt Q460N3).
T1 construct: made in house
T1 sequence (Q460N3 1-678): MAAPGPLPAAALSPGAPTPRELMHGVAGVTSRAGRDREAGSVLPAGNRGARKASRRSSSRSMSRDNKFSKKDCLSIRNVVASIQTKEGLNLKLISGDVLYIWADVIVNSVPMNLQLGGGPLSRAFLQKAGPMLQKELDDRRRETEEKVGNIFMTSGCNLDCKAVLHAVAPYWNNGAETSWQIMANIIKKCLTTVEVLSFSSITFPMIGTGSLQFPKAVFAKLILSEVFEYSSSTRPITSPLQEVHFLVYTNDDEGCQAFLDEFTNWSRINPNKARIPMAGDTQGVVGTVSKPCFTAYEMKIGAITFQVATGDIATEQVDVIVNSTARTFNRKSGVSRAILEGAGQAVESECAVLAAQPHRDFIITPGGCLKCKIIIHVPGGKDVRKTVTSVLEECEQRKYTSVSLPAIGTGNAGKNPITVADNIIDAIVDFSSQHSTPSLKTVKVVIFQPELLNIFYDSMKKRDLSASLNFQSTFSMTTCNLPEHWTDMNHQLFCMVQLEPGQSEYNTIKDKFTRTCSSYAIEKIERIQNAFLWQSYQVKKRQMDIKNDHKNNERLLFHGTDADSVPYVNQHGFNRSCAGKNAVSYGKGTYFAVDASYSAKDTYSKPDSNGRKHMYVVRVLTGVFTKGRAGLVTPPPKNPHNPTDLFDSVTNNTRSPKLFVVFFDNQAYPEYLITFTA
The data set is described as follows: biochemical. It is filed as biochemical. The conditions noted are these: standard assay (Tables 1-3); * value limited by the protein concentration used; > less than 50% inhibition, ≫ no inhibition at the concentration; read-out: PARP15 IC50.

Data set [2] has as its target T2, TNKS2 (Homo sapiens, UniProt Q9H2K2).
T2 sequence (Q9H2K2 1-1166): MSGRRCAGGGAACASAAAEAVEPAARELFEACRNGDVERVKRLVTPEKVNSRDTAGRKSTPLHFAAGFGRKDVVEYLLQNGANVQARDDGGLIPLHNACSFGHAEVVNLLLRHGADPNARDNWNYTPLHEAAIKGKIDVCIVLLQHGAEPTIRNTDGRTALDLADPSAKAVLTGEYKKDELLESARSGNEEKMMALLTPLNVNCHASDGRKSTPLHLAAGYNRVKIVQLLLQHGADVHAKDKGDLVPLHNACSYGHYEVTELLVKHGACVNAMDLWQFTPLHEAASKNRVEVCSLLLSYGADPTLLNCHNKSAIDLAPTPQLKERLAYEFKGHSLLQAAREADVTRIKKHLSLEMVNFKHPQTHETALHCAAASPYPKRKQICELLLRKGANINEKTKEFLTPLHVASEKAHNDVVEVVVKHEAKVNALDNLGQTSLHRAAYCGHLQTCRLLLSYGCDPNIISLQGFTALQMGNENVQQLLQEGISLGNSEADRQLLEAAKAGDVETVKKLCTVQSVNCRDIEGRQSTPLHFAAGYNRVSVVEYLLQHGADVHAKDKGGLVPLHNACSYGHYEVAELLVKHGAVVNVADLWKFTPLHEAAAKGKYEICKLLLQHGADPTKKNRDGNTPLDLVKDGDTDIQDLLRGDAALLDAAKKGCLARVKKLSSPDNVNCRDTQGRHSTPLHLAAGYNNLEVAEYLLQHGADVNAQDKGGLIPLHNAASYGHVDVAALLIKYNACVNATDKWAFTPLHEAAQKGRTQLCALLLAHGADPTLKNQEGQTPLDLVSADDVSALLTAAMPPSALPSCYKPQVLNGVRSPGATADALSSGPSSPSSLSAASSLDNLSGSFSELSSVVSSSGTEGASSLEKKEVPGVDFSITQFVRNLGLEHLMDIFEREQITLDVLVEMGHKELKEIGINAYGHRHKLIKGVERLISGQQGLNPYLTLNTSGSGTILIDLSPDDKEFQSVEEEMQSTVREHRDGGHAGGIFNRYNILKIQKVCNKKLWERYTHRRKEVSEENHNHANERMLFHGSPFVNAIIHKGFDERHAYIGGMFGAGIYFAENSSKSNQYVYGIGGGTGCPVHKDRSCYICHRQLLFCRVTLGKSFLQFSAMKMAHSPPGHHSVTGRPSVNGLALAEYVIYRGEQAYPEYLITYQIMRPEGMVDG
The data set is described as follows: biochemical. The protocol:
The proteins used in Tables 1–3 were produced as described earlier. Dockerin constructs to allow enhanced activity assays for mono-ARTs (Table 4) were produced in Escherichia coli with an N-terminal maltose binding protein (MBP) and a C-terminal dockerin domain from Hungateiclostridium thermocellum Cel48s as described recently.[47]
Inhibition experiments were performed using a homogenous assay measuring NAD+ consumption.[80]−[82] Reactions were carried out in quadruplicate, and IC50 curves were fitted using sigmoidal dose response curve (four variables) in GraphPad Prism version 8.02. […] Assay conditions for PARP2, TNKS2, PARP10, and PARP15 (Tables 1–3) were recently reported.[44] The conditions for the proximity-enhanced mono-ART assays (Table 4) were also reported recently.[47] PARP6 (400 nM) inhibition was measured using the standard buffer (50 mM sodium phosphate pH 7.0) for the enhanced activity assay using 500 nM NAD^+ and 18 h incubation in r.t..

Data set [3] has as its target T3, PARP2 (Homo sapiens, UniProt Q9UGN5).
T3 construct: made in house
Put plainly: biochemical. It is filed as biochemical.

Data set [4] in a line: PAMPA, blood brain barrier (BBB) permeability. It is filed as in vitro ADME. The following applies: brain polar lipid, pH 7.4, 5 h. The protocol:
Each “donor solution” was prepared from a solution of the appropriate compound (DMSO, 1 mM) diluted with phosphate buffer (pH 7.4, 0.025 M) up to a final concentration of 500 μM. […] Donor solution (150 μL) was added to each well of the filter plate and to each well of the acceptor plate was added 300 μL of solution (50% DMSO in phosphate buffer). The sandwich plate was assembled and incubated for 5 h at r.t. After the incubation time, the plates were separated, and the samples were taken from both the donor and acceptor wells, and the amount of compound was measured by UV/LC–MS. All compounds were tested in three independent experiments. […] Drug concentration is estimated by using the peak area integration. Membrane retentions (%) were calculated according to the following equation [drawing 2] where r is the ratio between drug concentration in the acceptor and equilibrium concentration and D, A, and Eq represent drug concentration in the donor, acceptor, and equilibrium solution, respectively.

Setting [5] is: read-out: TNKS2 IC50, > = less than 50% inhibition at highest concentration.
Setting [6] is: > = less than 50% inhibition at highest concentration, ≫ = no inhibition, read-out: PARP2 IC50.

Where two headings read alike, the source gives them in different places.

T3 sequence (Q9UGN5 whole entry): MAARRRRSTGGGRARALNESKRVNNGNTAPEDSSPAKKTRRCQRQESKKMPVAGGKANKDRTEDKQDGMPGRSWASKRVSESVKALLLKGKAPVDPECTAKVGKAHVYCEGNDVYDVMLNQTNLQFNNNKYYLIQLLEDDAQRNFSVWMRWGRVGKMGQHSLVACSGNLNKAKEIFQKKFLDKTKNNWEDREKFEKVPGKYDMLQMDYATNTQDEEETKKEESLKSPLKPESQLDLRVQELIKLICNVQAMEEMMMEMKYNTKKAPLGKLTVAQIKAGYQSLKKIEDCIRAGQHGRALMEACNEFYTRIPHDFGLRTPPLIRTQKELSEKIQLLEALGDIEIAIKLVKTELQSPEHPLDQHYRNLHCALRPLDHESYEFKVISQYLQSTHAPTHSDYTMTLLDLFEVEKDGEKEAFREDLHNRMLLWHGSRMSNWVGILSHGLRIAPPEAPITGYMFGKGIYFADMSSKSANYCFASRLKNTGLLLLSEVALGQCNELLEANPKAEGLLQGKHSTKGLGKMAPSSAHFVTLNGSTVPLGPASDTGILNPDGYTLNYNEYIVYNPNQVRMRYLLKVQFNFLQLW

As usually defined, the IC50 is the concentration needed to halve the response being measured. On to `Cc1ccc2c(c1)sc1nnc(O)n12` [Compound 19], for which the IC50 is greater than 10 µM in data set [1], greater than 100 µM in data set [2] (setting [5]) and greater than 100 µM in data set [3] (setting [6]).

Regarding `Cc1ccc2c(c1)sc1nncn12` [Compound 1], the IC50 in data set [2] (setting [5]) was 5.3 µM; in data set [3] (setting [6]), 4 µM.

With `CCc1ccc2c(c1)sc1nncn12` [Compound 5, 7-Ethyl[1,2,4]triazolo[3,4-b][1,3]benzothiazole], the figures for the IC50 in data set [2] (setting [5]) and in data set [3] (setting [6]) were 5.3 µM and 3.9 µM, respectively.

With `Cc1ccc2c(c1)sc1nnc(NCc3ccc(Cl)cc3)n12` [Compound 25, N-(4-Chlorobenzyl)-7-methyl[1,2,4]triazolo[3,4-b][1,3]benzothiazol-3-amine], the IC50 in data set [2] (setting [5]) was greater than 100 µM; in data set [3] (setting [6]), 70 µM.

For `Cc1ccc(F)c2c1sc1nncn12` [Compound 9, 5-Fluoro-8-methyl[1,2,4]triazolo[3,4-b][1,3]benzothiazole], in data set [2] (setting [5]), the IC50 was determined as 5.4 µM.

Regarding `Cc1ccc2sc3nncn3c2c1` [Compound 3, 6-Methyl[1,2,4]triazolo[3,4-b][1,3]benzothiazole], the “TNKS2 pIC50 ± SEM” value in data set [2] (n = 3) is 6.02 ± 0.13. The IC50 in data set [2] (setting [5]) came to 0.95 µM; in data set [3] (setting [6]) it was 1.5 µM.

Consider `CSc1nnc2sc3cc(C)ccc3n12` [Compound 22, 7-Methyl-3-(methylthio)[1,2,4]triazolo[3,4-b][1,3]benzothiazole], for which the concentration for half-maximal inhibition (IC50) was greater than 100 µM in data set [2] (setting [5]) and 12 µM in data set [3] (setting [6]).

Take `COc1cccc2c1sc1nncn12` [Compound 12, 8-Methoxy[1,2,4]triazolo[3,4-b][1,3]benzothiazole]: the IC50 in data set [2] (setting [5]) was 24 µM; in data set [3] (setting [6]) it was greater than 10 µM.

`COc1ccc(OC)c2c1sc1nnc(S)n12` [Compound 26, 5,8-Dimethoxy[1,2,4]triazolo[3,4-b][1,3]benzothiazole-3(2H)-thione]: the figures for the IC50 in data set [2] (setting [5]) and in data set [3] (setting [6]) were 66 µM and 19 µM, respectively.

With `COc1ccc2c(c1)sc1nncn12` [Compound 11], the IC50 stood at 5.5 µM in data set [2] (setting [5]) and 8.8 µM in data set [3] (setting [6]).

With `COc1ccc(OC)c2c1sc1nnc(NC(C)=O)n12` [Compound 31, N-(5,8-Dimethoxy[1,2,4]triazolo[3,4-b][1,3]benzothiazol-3-yl)acetamide], the IC50 in data set [2] (setting [5]) is greater than 100 µM; in data set [3] (setting [6]), 97 µM.

On to `COc1ccc2sc3nncn3c2c1` [Compound 10, 6-Methoxy[1,2,4]triazolo[3,4-b][1,3]benzothiazole], for which the half-maximal inhibitory concentration (IC50) came out at 1 µM in data set [2] (setting [5]) and 4.7 µM in data set [3] (setting [6]).

As to `COc1ccc(OC)c2c1sc1nnc(NC(=O)C(C)(C)C)n12` [Compound 30, N-(5,8-Dimethoxy[1,2,4]triazolo[3,4-b][1,3]benzothiazol-3-yl)-2,2-dimethylpropanamide], the IC50 in data set [2] (setting [5]) was greater than 100 µM; in data set [3], 53 µM.

Broadly, the Papp is the rate of passage across a membrane or cell layer, normalised by area and donor concentration. A lower Papp goes with slow passage. Regarding `O=C(c1cc(Cc2n[nH]c(=O)c3ccccc23)ccc1F)N1CCN(C(=O)C2CC2)CC1` [olaparib, reference compound], the Papp at 5 h, 500 μM in data set [4] is 0.016 ×10⁻⁶ cm/s.

Consider `Cc1ccc2c(c1)sc1nnc(/N=C\c3ccc(Cl)cc3)n12` [Compound 24, N-[(1Z)-(4-Chlorophenyl)methylene]-7-methyl[1,2,4]triazolo[3,4-b][1,3]benzothiazol-3-amine], for which the IC50 in data set [2] was greater than 100 µM; in data set [3] (read-out: PARP2 IC50), 2.9 µM.

On to `Cc1cccc2c1sc1nncn12` [Compound 4, 8-Methyl[1,2,4]triazolo[3,4-b][1,3]benzothiazole], for which the IC50 in data set [2] (setting [5]) was determined as 3.8 µM; in data set [3] (setting [6]), 8.3 µM.

For the compound `Cc1cc(C)c2c(c1)sc1nncn12` [Compound 8], the values for the 50% inhibitory concentration (IC50) in data set [2] (setting [5]) and in data set [3] (setting [6]) were 1.2 µM and 1.3 µM, respectively.

Turning to `COc1ccc(OC)c2c1sc1nncn12` [Compound 14, 5,8-Dimethoxy[1,2,4]triazolo[3,4-b][1,3]benzothiazole], the IC50 in data set [2] (setting [5]) came out at 4 µM; in data set [3] (setting [6]), 9.2 µM.

Take `COc1cccc2sc3nncn3c12` [Compound 13, 5-Methoxy[1,2,4]triazolo[3,4-b][1,3]benzothiazole]: in data set [2] (setting [5]), the IC50 came to 1 µM.

Take `Cc1ccc2c(c1)sc1nnc(SCc3ccc(Cl)cc3)n12` [Compound 23, 3-[(4-Chlorobenzyl)thio]-7-methyl[1,2,4]triazolo[3,4-b][1,3]benzothiazole]: the IC50 in data set [2] (setting [5]) and in data set [3] (setting [6]) was greater than 100 µM each time.

Turning to `Oc1cccc2c1sc1nncn12` [Compound 17, [1,2,4]Triazolo[3,4-b][1,3]benzothiazol-8-ol], the IC50 in data set [2] (setting [5]) came to 17 µM; in data set [3] (setting [6]), 29 µM.

For the compound `COc1cc(OC)c2sc3nncn3c2c1` [Compound 15, 6,8-Dimethoxy[1,2,4]triazolo[3,4-b][1,3]benzothiazole], the results for the IC50 in data set [2] (setting [5]) and in data set [3] (setting [6]) were 7.6 µM and 20 µM, respectively.

Turning to `Clc1ccc2c(c1)sc1nncn12` [Compound 7], the half-maximal inhibitory concentration (IC50) is 10 µM in data set [2] (setting [5]) and 2.4 µM in data set [3] (setting [6]).
